Key:
Assay type in all cases: cell-based
UGT73P12 = molecular target: T1, UGT73P12 (Glycyrrhiza uralensis, UniProt A0A5A4WN00); test: de novo pathway in yeast, LC-MS of glycyrrhizin; settings: donor endogenous UDP-glucuronic acid (UGD); acceptor made in situ by CSyGT
T1 construct: expressed in S. cerevisiae in the reconstructed glycyrrhizin pathway (strain GL)
T1 sequence (A0A5A4WN00 1-506): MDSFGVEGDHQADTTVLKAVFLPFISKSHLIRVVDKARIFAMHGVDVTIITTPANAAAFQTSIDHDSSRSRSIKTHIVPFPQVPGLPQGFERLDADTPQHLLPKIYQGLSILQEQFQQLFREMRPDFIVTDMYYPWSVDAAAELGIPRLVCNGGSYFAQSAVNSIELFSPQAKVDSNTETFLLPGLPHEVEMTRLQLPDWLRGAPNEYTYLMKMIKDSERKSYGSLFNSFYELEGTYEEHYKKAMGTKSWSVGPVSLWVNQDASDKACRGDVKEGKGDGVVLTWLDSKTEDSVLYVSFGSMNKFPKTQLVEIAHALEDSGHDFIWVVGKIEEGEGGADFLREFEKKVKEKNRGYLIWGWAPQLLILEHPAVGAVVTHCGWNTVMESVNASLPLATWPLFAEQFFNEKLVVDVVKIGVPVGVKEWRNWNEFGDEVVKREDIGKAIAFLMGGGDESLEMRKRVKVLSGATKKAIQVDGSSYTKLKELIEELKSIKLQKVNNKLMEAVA

LjCSyGT = molecular target: T2, LjCSyGT (Lotus japonicus, UniProt A0A7I6P8A1); test: in vivo yeast assay, LC-MS of monoglucuronide; settings: yeast strain with co-expressed UGD; endogenous UDP-glucuronic acid; 30 °C, 5 days
T2 construct: cDNA clone, ER membrane protein, expressed in S. cerevisiae with A. thaliana UGD
T2 sequence (A0A7I6P8A1 1-694): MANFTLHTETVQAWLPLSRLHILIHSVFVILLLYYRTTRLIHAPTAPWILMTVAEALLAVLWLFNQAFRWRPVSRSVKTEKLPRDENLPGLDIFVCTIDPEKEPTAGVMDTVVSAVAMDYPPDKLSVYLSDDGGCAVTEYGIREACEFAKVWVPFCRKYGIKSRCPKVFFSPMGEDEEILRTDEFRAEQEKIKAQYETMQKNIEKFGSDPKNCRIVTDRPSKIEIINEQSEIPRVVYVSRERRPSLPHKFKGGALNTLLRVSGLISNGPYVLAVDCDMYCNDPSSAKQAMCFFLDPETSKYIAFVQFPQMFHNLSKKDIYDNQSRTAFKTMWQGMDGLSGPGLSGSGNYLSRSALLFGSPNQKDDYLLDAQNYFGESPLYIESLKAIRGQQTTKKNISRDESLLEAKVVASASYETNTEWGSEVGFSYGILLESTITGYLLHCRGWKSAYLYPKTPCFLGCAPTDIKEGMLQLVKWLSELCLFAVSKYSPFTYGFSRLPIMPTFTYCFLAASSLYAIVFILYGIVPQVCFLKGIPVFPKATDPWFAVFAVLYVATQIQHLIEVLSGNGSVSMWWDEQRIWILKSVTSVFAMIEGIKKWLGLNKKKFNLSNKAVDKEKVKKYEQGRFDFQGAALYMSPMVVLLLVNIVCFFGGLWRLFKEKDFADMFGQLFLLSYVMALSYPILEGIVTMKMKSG

GmCSyGT1 = molecular target: T3, GmCSyGT1 (Glycine max, UniProt A0A7I6PD81); test: in vivo yeast assay, LC-MS of monoglucuronide; settings: yeast strain with co-expressed UGD; endogenous UDP-glucuronic acid; 30 °C, 5 days
T3 construct: full-length cDNA, membrane protein, expressed in S. cerevisiae with A. thaliana UGD
T3 sequence (A0A7I6PD81 1-699): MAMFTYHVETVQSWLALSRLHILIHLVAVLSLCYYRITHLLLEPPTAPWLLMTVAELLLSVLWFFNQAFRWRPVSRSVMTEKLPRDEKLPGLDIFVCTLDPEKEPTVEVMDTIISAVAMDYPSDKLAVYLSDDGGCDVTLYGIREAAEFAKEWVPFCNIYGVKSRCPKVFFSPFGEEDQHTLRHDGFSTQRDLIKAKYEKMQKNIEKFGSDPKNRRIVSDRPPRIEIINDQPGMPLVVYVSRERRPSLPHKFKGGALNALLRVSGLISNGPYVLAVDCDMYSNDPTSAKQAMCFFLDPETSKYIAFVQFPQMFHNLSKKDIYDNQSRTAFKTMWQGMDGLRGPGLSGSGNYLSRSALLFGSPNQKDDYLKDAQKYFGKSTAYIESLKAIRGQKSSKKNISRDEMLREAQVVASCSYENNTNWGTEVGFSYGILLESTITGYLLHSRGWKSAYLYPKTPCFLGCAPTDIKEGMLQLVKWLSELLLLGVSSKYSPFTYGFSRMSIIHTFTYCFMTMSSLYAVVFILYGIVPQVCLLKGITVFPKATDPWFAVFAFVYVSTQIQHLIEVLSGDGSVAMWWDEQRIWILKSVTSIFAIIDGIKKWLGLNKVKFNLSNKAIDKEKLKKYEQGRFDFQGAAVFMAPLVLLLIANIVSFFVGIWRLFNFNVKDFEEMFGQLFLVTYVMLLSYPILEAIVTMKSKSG

GuCSyGT [1] = molecular target: T4, GuCSyGT (Glycyrrhiza uralensis, UniProt A0A7I6P8N6); test: in vivo yeast assay, LC-MS of monoglucuronide; settings: yeast strain with co-expressed UGD; endogenous UDP-glucuronic acid; 30 °C, 5 days
T4 construct: full-length cDNA, ER membrane protein, expressed in S. cerevisiae with A. thaliana UGD
T4 sequence (A0A7I6P8N6 1-695): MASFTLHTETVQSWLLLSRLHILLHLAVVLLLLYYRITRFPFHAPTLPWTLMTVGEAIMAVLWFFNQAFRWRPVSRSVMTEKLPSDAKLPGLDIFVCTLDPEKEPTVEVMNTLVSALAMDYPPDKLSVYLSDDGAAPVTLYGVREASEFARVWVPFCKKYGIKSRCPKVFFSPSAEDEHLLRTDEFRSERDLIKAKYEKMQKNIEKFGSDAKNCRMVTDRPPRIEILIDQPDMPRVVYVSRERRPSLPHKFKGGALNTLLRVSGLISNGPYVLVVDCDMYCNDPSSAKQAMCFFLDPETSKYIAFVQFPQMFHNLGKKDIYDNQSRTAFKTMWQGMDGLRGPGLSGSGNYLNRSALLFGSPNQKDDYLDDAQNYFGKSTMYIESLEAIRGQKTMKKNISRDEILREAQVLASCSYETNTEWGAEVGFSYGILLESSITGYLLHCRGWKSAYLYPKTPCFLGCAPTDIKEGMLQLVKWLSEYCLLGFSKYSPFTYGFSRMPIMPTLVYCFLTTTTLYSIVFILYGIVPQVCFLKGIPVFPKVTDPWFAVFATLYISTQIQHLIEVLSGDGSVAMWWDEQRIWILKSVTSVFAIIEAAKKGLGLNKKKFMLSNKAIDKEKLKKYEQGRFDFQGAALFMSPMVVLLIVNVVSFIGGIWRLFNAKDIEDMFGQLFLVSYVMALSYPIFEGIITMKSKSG

GuUGT73F13 = molecular target: T5, GuUGT73F13 (Glycyrrhiza uralensis, UniProt A0A6S4QPQ3); test: in vivo yeast assay, LC-MS of 3-O-monoglucoside; settings: glycyrrhetinic acid-producing yeast strain with UGD; donor endogenous UDP-glucose
T5 construct: gene UGT73F13; cDNA clone expressed in S. cerevisiae with A. thaliana UGD
T5 sequence (A0A6S4QPQ3 1-477): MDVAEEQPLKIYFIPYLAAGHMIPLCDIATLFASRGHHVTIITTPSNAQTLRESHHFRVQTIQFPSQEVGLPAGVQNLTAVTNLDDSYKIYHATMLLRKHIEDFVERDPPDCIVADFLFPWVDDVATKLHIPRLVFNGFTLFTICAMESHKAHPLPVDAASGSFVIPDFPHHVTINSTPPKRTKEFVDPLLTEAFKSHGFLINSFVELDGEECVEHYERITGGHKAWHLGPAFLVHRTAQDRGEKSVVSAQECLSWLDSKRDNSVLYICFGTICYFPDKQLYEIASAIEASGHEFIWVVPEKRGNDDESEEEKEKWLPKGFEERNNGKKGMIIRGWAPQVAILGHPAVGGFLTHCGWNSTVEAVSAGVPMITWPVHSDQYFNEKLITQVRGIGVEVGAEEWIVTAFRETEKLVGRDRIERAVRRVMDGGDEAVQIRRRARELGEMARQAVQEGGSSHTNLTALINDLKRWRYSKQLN

GmCSyGT3 = molecular target: T6, GmCSyGT3 (Glycine max, UniProt A0A7I6P8J7); test: yeast feeding assay, LC-MS of monoglucuronide; settings: 10 µM substrate fed to yeast with co-expressed UGD
T6 construct: full-length cDNA, membrane protein, expressed in S. cerevisiae with A. thaliana UGD
T6 sequence (A0A7I6P8J7 1-696): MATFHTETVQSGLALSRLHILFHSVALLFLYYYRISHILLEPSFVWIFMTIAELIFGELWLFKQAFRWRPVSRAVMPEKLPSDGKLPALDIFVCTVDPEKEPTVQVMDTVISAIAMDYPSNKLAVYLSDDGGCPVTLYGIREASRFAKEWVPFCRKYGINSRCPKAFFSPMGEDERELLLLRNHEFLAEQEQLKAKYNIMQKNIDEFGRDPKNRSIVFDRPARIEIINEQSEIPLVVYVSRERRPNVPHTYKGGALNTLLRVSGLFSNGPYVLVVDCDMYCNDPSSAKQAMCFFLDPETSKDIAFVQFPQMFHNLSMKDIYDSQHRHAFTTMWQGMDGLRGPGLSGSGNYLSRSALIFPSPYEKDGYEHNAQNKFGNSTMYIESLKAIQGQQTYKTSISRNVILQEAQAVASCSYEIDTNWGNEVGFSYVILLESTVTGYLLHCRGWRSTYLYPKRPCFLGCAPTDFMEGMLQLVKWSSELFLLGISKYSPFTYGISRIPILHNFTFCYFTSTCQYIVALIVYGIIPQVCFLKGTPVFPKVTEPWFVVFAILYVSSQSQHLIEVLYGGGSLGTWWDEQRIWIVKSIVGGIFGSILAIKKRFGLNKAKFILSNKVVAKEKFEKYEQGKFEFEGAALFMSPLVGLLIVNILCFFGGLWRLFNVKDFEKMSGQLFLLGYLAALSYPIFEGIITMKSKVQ

GuCSyGT [2] = molecular target: T4, GuCSyGT; test: in vivo yeast assay, LC-MS of products with and without UGD; settings: sugar donor; acceptor glycyrrhetinic acid

SMILES: CC1(C)[C@@H](O[C@@H]2O[C@H](C(=O)O)[C@@H](O)[C@H](O)[C@H]2O)CC[C@]2(C)[C@H]3C(=O)C=C4[C@@H]5C[C@@](C)(C(=O)O)CC[C@]5(C)CC[C@@]4(C)[C@]3(C)CC[C@@H]12 [GA–GlcA, glycyrrhetinic acid-3-O-monoglucuronide]
- de novo pathway in yeast, LC-MS of glycyrrhizin (UGT73P12): Since the product is quickly converted into glycyrrhizin in GL strains

SMILES: CC1(C)[C@@H](O)CC[C@]2(C)[C@H]3C(=O)C=C4[C@@H]5C[C@@](C)(C(=O)O)CC[C@]5(C)CC[C@@]4(C)[C@]3(C)CC[C@@H]12 [GA, glycyrrhetinic acid]
- in vivo yeast assay, LC-MS of monoglucuronide (LjCSyGT): The low catalytic activity of LjCSyGT for glycyrrhetinic and oleanolic acids
- in vivo yeast assay, LC-MS of monoglucuronide (GmCSyGT1): All of the CSyGT-expressing strains produced the corresponding monoglucuronides
- in vivo yeast assay, LC-MS of monoglucuronide (GuCSyGT [1]): All of the CSyGT-expressing strains produced the corresponding monoglucuronides
- in vivo yeast assay, LC-MS of 3-O-monoglucoside (GuUGT73F13): GuUGT73F13, which catalyses 3-O-glucosylation of glycyrrhetinic acid

SMILES: C[C@H]1[C@H](C)CC[C@]2(C(=O)O)CC[C@]3(C)C(=CC[C@@H]4[C@@]5(C)CC[C@H](O)C(C)(C)[C@@H]5CC[C@]43C)[C@H]12 [ursolic acid]
- yeast feeding assay, LC-MS of monoglucuronide (GmCSyGT3): GmCSyGT3 showed catalytic activity against the triterpenoid aglycones, ursolic acid and betulinic acid

SMILES: O=C(O)[C@H]1O[C@H](OP(=O)(O)OP(=O)(O)OC[C@H]2O[C@@H](n3ccc(=O)[nH]c3=O)[C@H](O)[C@@H]2O)[C@H](O)[C@@H](O)[C@@H]1O [UDP-glucuronic acid]
- in vivo yeast assay, LC-MS of products with and without UGD (GuCSyGT [2]): GuCSyGT preferentially selects UDP-glucuronic acid as the sugar donor

SMILES: C=C(C)[C@@H]1CC[C@]2(C(=O)O)CC[C@]3(C)[C@H](CC[C@@H]4[C@@]5(C)CC[C@H](O)C(C)(C)[C@@H]5CC[C@]43C)[C@@H]12 [betulinic acid]
- yeast feeding assay, LC-MS of monoglucuronide (GmCSyGT3): GmCSyGT3 showed catalytic activity against the triterpenoid aglycones, ursolic acid and betulinic acid

SMILES: CC1(C)C[C@@H](O)[C@]2(C)CC[C@]3(C)C(=CC[C@@H]4[C@@]5(C)CC[C@H](O)[C@](C)(CO)[C@@H]5CC[C@]43C)[C@@H]2C1 [soyasapogenol B]
- in vivo yeast assay, LC-MS of monoglucuronide (LjCSyGT): all three had similar levels of catalytic activity for soyasapogenol B
- in vivo yeast assay, LC-MS of monoglucuronide (GmCSyGT1): all three had similar levels of catalytic activity for soyasapogenol B
